Results on five molecules are retold here after US5120748A, “Substituted 1,2,3,6-tetrahydropyridines as central nervous system agents” (Warner-Lambert Company, priority 1991, dated 1992).

Assay [1] deals with locomotor activity. Kind of assay: Inhibition of locomotor activity in mice. The assay is classed as in vivo. The settings on record: Mus musculus, IP. As to the method: (§1) The compounds of Formula I are valuable dopaminergic agents. […] Thus, the compounds of Formula I were tested for their ability to inhibit locomotor activity in mice according to the assay described by J. R. McLean, et al, Pharmacology, Biochemistry and Behavior, Volume 8, pages 97-99 (1978); for their ability to inhibit [^3 H]-spiroperidol binding in a receptor assay described by D. Griogoriadis and P. Seeman, Journal of Neurochemistry, Volume 44, pages 1925-1935 (1985); and for their ability to inhibit dopamine synthesis in rats according to the protocol described by J. R. Walters and R. H. Roth, Naunyn-Schmiedeberg's Archives of Pharmacology, Volume 296, pages 5-14 (1976). The above test methods are incorporated herein by reference. The data in the table show the dopaminergic activity of representative compounds of Formula I.

For assay [2], the target named is [^3 H]spiroperidol binding. Put plainly: Inhibition of [^3 H]spiroperidol binding in a receptor assay. The settings on record: [^3 H]spiroperidol radioligand. The method, then: as §1
Assay [3] has as its system brain dopamine synthesis. Kind of assay: Reversal of brain dopamine synthesis in rats (inhibition of dopamine synthesis). It is filed as in vivo. The note with it: 10 mg/kg, IP. As to the method:
as §1

In general, ED50 refers to the dose at which the effect has come halfway, by size or by number of responders. Low values mean an effect at a small dose, high ones a need for a large dose. As a reminder, the IC50 is the concentration that inhibits the measured activity by half. A lower IC50 goes with greater potency in that assay. On to `C1=C(c2cccs2)CCN(CCCSc2ccncc2)C1` [Example 2, 4-[[3-[3,6-Dihydro-4-(2-thienyl)-1(2H)-pyridinyl]propyl]thio]pyridine], for which, in assay [1], the ED50 stood at 0.5 mg/kg. The molecule further yielded an IC50 in assay [2] of 86 µM.
For the molecule `C1=C(c2ccccc2)CCN(CCCSc2ccncc2)C1` [Example 3, 4-[[3-(3,6-Dihydro-4-phenyl-1(2H)-pyridinyl)propyl]thio]pyridine], the 50% effect level in assay [1] (ED50) was put at a dose of 0.4 mg/kg. In assay [3], the “% Reversal of Brain Dopamine Synthesis in Rats” value (from here on “% Reversal”) is recorded as 48%. The molecule also showed a concentration for half-maximal inhibition (IC50) in assay [2] of 46 µM.
For `C1=C(c2cccs2)CCN(CCCCSc2ccncc2)C1.Cl.Cl` [Example 5, 1,2,3,6-Tetrahydro-1-[4-(4-pyridinylthio)butyl]-4-(2-thienyl)pyridine, dihydrochloride], the 50% effect level in assay [1] (ED50) was put at a dose of 1.8 mg/kg. Besides, the “% Reversal” value in assay [3] amounted to 47%. For the same molecule, the IC50 in assay [2] was determined as 190 µM.
For the molecule `C1=C(c2ccccc2)CCN(CCSCc2cccnc2)C1.Cl.Cl` [Example 1, 3-[[[2-(1,2,3,6-Tetrahydro-4-phenyl-1-pyridinyl)ethyl]thio]methyl]pyridine, dihydrochloride], it took a dose of 0.18 mg/kg to reach the 50% effect level in assay [1] (ED50). In addition, the “% Reversal” value in assay [3] worked out at 70%.
Molecule `C1=C(c2ccccc2)CCN(CCCCSc2ccncc2)C1` [Example 4, 1,2,3,6-Tetrahydro-4-phenyl-1-[4-(4-pyridinylthio)butyl]pyridine] gave a median effective dose (ED50) in assay [1] of 1 mg/kg. Besides, the “% Reversal” value in assay [3] stood at 82%. In assay [2], this molecule displayed an IC50 of 92 µM.
